{"source": "patent US12653827B2", "about": "“Methods of treating indolent systemic mastocytosis” (Telios Pharma Inc., priority 2024, dated 2026)", "key": {"IL-4": {"system": "IL-4", "test": "Anti-IgE induced IL-4 production from basophils in whole blood", "format": "cell-based, human", "conditions": "whole blood from a healthy donor, treated two hours, anti-IgE six hours", "description": "Human mast cells lines, ROSA with wildtype KIT and ROSA […] with D816V KIT mutation (ISM-like cells), were licensed from CRNS Innovation and cultured with or without stem cell factor (100 ng/mL), respectively (FIG. 12A). ROSA cells were stimulated with IL-4 (20 ng/mL; R&D Systems) for 18 hours, stained for FcεRIα(Becton Dickinson) for 30 minutes on ice, washed twice with FACS buffer and data was acquired on a flow cytometer. The median fluorescence intensity of FcεRIα was measured. […] Whole blood from a healthy donor was treated with Compound 128 for two hours and the basophils were stimulated with anti-IgE (1 μg/mL; Beckman Coulter) for six hours (FIG. 12B). Plasma was collected and IL-4 levels were measured using the BD CBA human soluble protein master buffer kit and BD CBA human soluble protein flex set for IL-4 (Becton Dickinson). A four-parameter logistic regression analysis was performed on the cytokine levels to determine the EC50 and EC90. […] Therefore, Compound 128 may indirectly effect FcεRI expression by the reduction of IL-4 levels."}, "[1]": {"system": "calcium influx in human mast cells", "test": "Calcium flux assay in antigen-stimulated human mast cells", "format": "cell-based", "conditions": "treated 2 hours, NP-BSA stimulation", "description": "(§1) Human mast cells were derived from bone marrow CD34+ cells from six healthy donors for up to eight weeks by culturing CD34+ cells in StemSpan SFEM II (Stem Cell Technologies) supplemented with stem cell factor (SCF; 100 ng/mL; R&D System), IL-6 (R&D Systems), IL-3 (R&D Systems) and 1% penicillin/streptomycin (P/S; Gibco) for the first 10 days and in StemSpan SFEM II supplemented with SCF and IL-6 and 1% P/S for the remaining time in culture. […] Supernatant was collected and histamine levels were measured using a Histamine ELISA kit (Eagle Biosciences). […] Percent of activated mast cells was calculated as number of activated mast cells over the total number of mast cells.\nCompound 128 Inhibits Calcium Signaling in Human Mast Cells. […] The median fluorescence intensity of cytosolic calcium was measured across the stimulation time period and graphed to represent the calcium influx profile. The area under the curve (AUC) of the calcium influx profile was calculated and normalized as a percent of stimulated control. […]"}, "human mast cells": {"system": "human mast cells", "test": "Antigen-induced degranulation (CD63 and histamine) in ISM-like human mast cells", "format": "cell-based", "conditions": "six healthy donors, treated two hours", "description": "as §1\nHuman mast cells were differentiated from bone marrow CD34+ cells from six healthy donors, cultured and sensitized as set forth in Example 4. […] The median fluorescence intensity of phosphorylated BTK was measured. CD63 and histamine levels in these cells were measured and percent activated mast cells were calculated as set forth in Example 4. The percent of stimulated control for pBTK, activated mast cells (CD63+) and histamine levels was calculated. […]"}}}
{"smiles": "C=CC(=O)N1CCC(F)(CNc2ncnc(N)c2-c2ccc(Oc3ccccc3)cc2)CC1", "note": "[Compound 128, 1-(4-(((6-amino-5-(4-phenoxyphenyl)pyrimidin-4-yl)amino)methyl)-4-fluoropiperidin-1-yl)prop-2-en-1-one]", "values": [{"measurement": "IgE-mediated IL-4 production", "setting": "IL-4", "value": "potently inhibited"}, {"measurement": "mast cells undergoing calcium influx (AUC, percent of stimulated control)", "setting": "[1]; ISM-like (+SCF) mast cells", "value": "less than 7%"}, {"measurement": "mast cells undergoing calcium influx (AUC, percent of stimulated control)", "setting": "[1]; healthy (−SCF) mast cells", "value": "< 3", "unit": "%"}, {"measurement": "inhibition of IgE-mediated degranulation (CD63 and histamine)", "setting": "human mast cells", "value": "potently inhibits"}]}
